Patent US11730743B2, “Protection of cells from degeneration and treatment of geographic atrophy” (University of Kentucky Research Foundation, priority 2012, dated 2023)

Key:
[1] = test system: Dicer1f/f mouse RPE cells; experiment: miRNA quantification in Dicer1f/f mouse RPE cells treated with Ad-Cre; format: cell-based; conditions: versus control peptide
Text: miRNA quantification. Total RNA containing miRNAs was polyadenylated and reverse transcribed using universal primer using the All-In-One miRNA q-RT-PCR Detection Kit (GeneCopoeia) according to the manufacturer's specifications using a universal reverse primer in combination with forward primers for: mouse miR-184; mouse miR-221/222; mouse miR-320a; and mouse miR-484. miRNA levels were normalized to levels of U6 snRNA using the 2^−ΔΔct method. Detection was achieved by SYBR green qPCR with the following conditions: 95° C. for 10 min followed by 40 cycles of 95° C. for 10 s, 60° C. for 20 s and 72° C. for 20 s. Amplicon specificity was assessed by melt curve analysis and unique bands by agarose gel electrophoresis.
Adenoviral infection. Cells were plated at density of 15×10^3/cm^2 and after 16 h, at approximately 50% confluence, were infected with AdCre or AdNull (Vector Laboratories) with a multiplicity of infection of 1,000.

wild-type mice = experiment: Alu RNA- or pAlu-induced RPE degeneration after subretinal injection (fundus photographs, ZO-1 flat mounts); format: in vivo; conditions: subretinal Alu RNA, test agent intravitreous
Experimental: Subretinal injection and imaging. Subretinal injections (1 μL) in mice were performed using a Pico-Injector (PLI-100, Harvard Apparatus). In vivo transfection of plasmids was achieved using 10% Neuroporter (Genlantis). Fundus imaging was performed on a TRC-50 IX camera (Topcon) linked to a digital imaging system (Sony). Immunolabeling of RPE flat mounts was performed using antibodies against human zonula occludens-1 (Invitrogen).
Fundus photography. Retinal photographs of dilated mouse eyes were taken with a TRC-50 IX camera (Topcon) linked to a digital imaging system (Sony).
Immunolabeling. Human eyes fixed in 2-4% paraformaldehyde were prepared as eyecups, cryoprotected in 30% sucrose, embedded in optimal cutting temperature compound (Tissue-Tek OCT; Sakura Finetek), and cryosectioned into 10 μm sections. Depigmentation was achieved using 0.25% potassium permanganate and 0.1% oxalic acid. Immunohistochemical staining was performed with the rabbit antibody against NLRP3 (1:100, Sigma Aldrich) or rabbit antibody against Caspase-1 (prediluted, AbCam). Isotype IgG was substituted for the primary antibody to assess the specificity of the staining. Bound antibody was detected with biotin-conjugated secondary antibodies, followed by incubation with ABC reagent and visualized by Vector Blue (Vector Laboratories). Levamisole (Vector Laboratories) was used to block endogenous alkaline phosphatase activity. Slides were washed in PBS, counterstained with neutral red (Fisher Scientific), rinsed with deionized water, air dried, and then mounted in Vectamount (Vector Laboratories). Fluorescent labeling of human tissue was performed with the rabbit antibody against PYCARD (1:50, Clone N-15, Santa Cruz Biotechnology). Immunolabeling was visualized by fluorescently conjugated anti-rabbit secondary antibody (Invitrogen). Tissue autofluorescence was quenched by incubating the sections in 0.3% Sudan black (Fisher Scientific). Sections were mounted in Vectashield with DAPI (Vector Laboratories). Mouse RPE/choroid flat mounts were fixed with 4% paraformaldehyde or 100% methanol, stained with rabbit antibodies against human zonula occludens-1 (1:100, Invitrogen) and visualized with Alexa594 (Invitrogen). All images were obtained using the Leica SP-5 or Zeiss Axio Observer Z1 microscopes.
Subretinal injection. Subretinal injections (1 μL) in mice were performed using a Pico-Injector (PLI-100, Harvard Apparatus). In vivo transfection of plasmids coding for two different Alu sequences (pAlu) or empty control vector (pNull) (Bennett et al., 2008; Kaneko et al., 2011; Shaikh et al., 1997) was achieved using 10% Neuroporter (Genlantis). AAV1-BEST1-Cre (Alexander and Hauswirth, 2008) or AAV1-BEST1-GFP were injected at […] pfu/mL and in vitro transcribed Alu RNA was injected at 0.3 mg/mL.
Drug treatments. siRNAs formulated in siRNA buffer (20 mM KCL, 0.2 mM MgCl2 in HEPES buffer at pH 7.5; Dharmacon) or phosphate buffered saline (PBS; Sigma-Aldrich); the TLR4 antagonist Ultra Pure Rhodobacter sphaeroides LPS (LPS-RS, InvivoGen), a peptide inhibitor of MyD88 homodimerization IMG-2005 (IMGENEX), control inhibitor (IMGENEX), recombinant IL-18 (Medical & Biological Laboratories), neutralizing rat antibodies against mouse IL-1β (IMGENEX), neutralizing rat antibodies against mouse IL-18 (Medical & Biological Laboratories), isotype control IgGs (R&D Systems or eBioscience as appropriate), Caspase-1 inhibitor Z-WEHD-FMK (R&D Systems), Caspase-3 inhibitor Z-DEVD-FMK (R&D Systems), Caspase control inhibitor Z-FA-FMK (R&D Systems), (2R,4R)-APDC (Enzo Life Sciences), Glipizide (Sigma-Aldrich), Glyburide (Sigma-Aldrich), and P2X7 receptor antagonist A438079 (Tocris Bioscience) were dissolved in phosphate buffered saline (PBS; Sigma-Aldrich) or dimethyl sulfoxide (DMSO; Sigma-Aldrich), and injected into the vitreous humor in a total volume of 1 μL with a 33-gauge Exmire microsyringe (Ito Corporation). […]

IRAK1/4 = experiment: Western blot of phosphorylated IRAK1/4 in human RPE cells; format: cell-based; conditions: normalized to Vinculin
Experimental: Protein abundance and activity. Protein abundance was assessed by Western blot analysis using primary antibodies recognizing Caspase-1 (1:500; Invitrogen), pIRAK1 (1:500; Thermo Scientific), pIRAK4 (1:500, Abbomax, Inc), PYCARD (1:200, Santa Cruz Biotechnology), NLRP3 (1:500, Enzo Life Sciences) and Vinculin (1:1,000; Sigma-Aldrich). Caspase-1 activity was visualized using Caspalux1 E1D2 (OncoImmunin) reagent according to the manufacturer's instructions.
Western blotting. Tissues or cells were homogenized in lysis buffer (10 mM Tris base, pH 7.4, 150 mM NaCl, 1 mM EDTA, 1 mM EGTA, 1% Triton X-100, 0.5% NP-40, protease and phosphatase inhibitor cocktail (Roche)). Protein concentrations were determined using a Bradford assay kit (Bio-Rad) with bovine serum albumin as a standard. Proteins (40-100 μg) were run on NuPAGE Bis-Tris gels (Invitrogen) and transferred to Immun-Blot PVDF membranes (Bio-Rad). Cells were scraped in hot Laemmli buffer (62.5 mM Tris base, pH 6.8, 2% SDS, 5% 2-Mercaptoethanol, 10% Glycerol, 0.01% Bromophenol Blue). Samples were boiled and run on 4-20% NuPAGE Tris-Glycine gels (Invitrogen). […] Protein loading was assessed by immunoblotting using an anti-Vinculin antibody (1:1,000; Sigma-Aldrich). […]

“MyD88 inhibitory peptide: peptide inhibitor of MyD88 homodimerization IMG-2005 (IMGENEX)” was tested. Which “miRNA abundance in Dicer1 depleted cells” value [1] did it give?
The value was “No significant difference”.

And the “Alu RNA-induced RPE degeneration” value (wild-type mice)?
The value was “prevented”.

What about the “Alu RNA-induced phosphorylation of IRAK1/4” value (IRAK1/4) of the same substance?
The value was “reduced”.
